According to patent publication US20040106578A1, “Fungicidal compositions based on pyridylmethylbenzamide derivatives and at least one complex III inhibiting compound” (priority 2001, published 2004):

Tested on: Plasmopara viticola
Experiment: Test of a composition against vine downy mildew, preventive action, on grapevine plants
Assay type: in vivo
Details: grapevine var. Chardonnay sprayed 3 days before inoculation, evaluated 7 days after contamination, Abbott formula, untreated control 90% sporulated surface
Protocol: Test of a Composition Against Vine Downy Mildew (Plasmopara Viticola; Preventive Action)
Grapevine plants are grown (var. Chardonnay) on sandy soil in plastic pots, with one plant per pot. The plants which are two months old (6 to 7 developed leaves) are sprayed with compound (I) and compound (II), either alone, or as a mixture.
The fungicidal active ingredients, either alone, or as a mixture, are applied at a dose equivalent to 500 litres/ha.
The compound (I)/compound (II) ratio studied is 1/2.
Three days after the treatment, each plant is inoculated by spraying an aqueous suspension of Plasmopara viticola sporangia obtained from contaminated leaves. The sporangium concentration is about 100 000 units per ml.
After contamination, the plants are incubated for two days at 18° C. under a saturated atmosphere, and then for 5 days at about 20° C. with a relative humidity of 90-100%.
Seven days after the contamination, the symptoms are evaluated in terms of underside surface of the leaves which are infected, compared with the untreated but contaminated plants.
The efficacy of the treatment is calculated using the following Abbott formula: [formula]
The concentrations of the fungicides, alone or as a mixture, giving 50%, 70% or 90% efficacy for each component, in the appropriate test, are determined based on the dose/response sigmoid curve model and their corresponding confidence intervals. […]

Compound	Efficacy (%) (10 mg/l)	Efficacy (%) (5 mg/l)
CSC1=N[C@@](C)(c2ccccc2)C(=O)N1Nc1ccccc1 [Fenamidone, (S)-1-anilino-4-methyl-2-methylthio-4-phenylimidazolin-5-one]	72	
O=C(NCc1ncc(C(F)(F)F)cc1Cl)c1c(Cl)cccc1Cl [Compound (Ia), 2,6-dichloro-N-{[3-chloro-5-(trifluoromethyl)-2-pyridinyl]methyl}benzamide]		40
